Test results from patent US12351564B2, “NLRP3 modulators” (Zomagen Biosciences Ltd, priority 2019, dated 2025).

What follows are molecules tested on IL-1b (assay: Mouse BMDM IL-1b Assay). Details: Macrophage; C57BL6 bone marrow derived macrophages; 200 ng/mL Ultrapure LPS-B5 3 hours, compound 30 minutes, 5 mM ATP 45 minutes; mouse IL-1b ELISA of supernatant.
Type: cell-based
Experimental: Example 8: Mouse BMDM IL-1b Assay
Mouse bone marrow cells from C57BL6 tibia and femur were culture in complete Isocov's Media supplemented with 20 ng/mL MCSF (BMDM media) at a density of 50 million cells/15 cm Petri dish. Fresh media was changed every 3 days, and bone marrow derived macrophages were collected, washed, and counted on day 7. Cells were seeded into 96 well plates at a density of 5×10^4 cells per well in 100 uL of BMDM media and cultured overnight. The cells were stimulated at 37° C. with 200 ng/mL Ultrapure LPS-B5 for 3 hours before pre-diluted compounds were added. 30 minutes after compound addition, 5 mM ATP was added for the secondary stimulation for 45 minutes. After stimulation, the plates were briefly spun down, and 50 uL of supernatant was harvested from each well. ELISA for mouse IL-1b was performed with 1:10 and 1:100 diluted supernatant using pre-coated kits. IL-1b concentrations were calculated based on pre-titrated standards, and compound inhibition IC50 is generated using the Levenberg Marquardt damped lease-square method.
`CC(C)c1cccc(C(C)C)c1CC(=O)NS(=O)(=O)c1cc2c(o1)C1CCC(CC1)C2(C)O` (stereo not shown) [Compound 38, 2-(2,6-diisopropylphenyl)-N-((4-hydroxy-4-methyl-5,6,7,8-tetrahydro-4H-5,8-ethanocyclohepta[b]furan-2-yl)sulfonyl)acetamide] was tested, and the IC50 was 100 to 1000 nM. For `C[C@@]1(O)c2cc(S(=O)(=O)NC(=O)Nc3c4c(cc5c3CCC5)CCC4)oc2[C@H]2CC[C@@H]1C2` [Compound 39, (4S,5R,8S)-N-((1,2,3,5,6,7-hexahydro-s-indacen-4-yl)carbamoyl)-4-hydroxy-4-methyl-5,6,7,8-tetrahydro-4H-5,8-methanocyclohepta[b]furan-2-sulfonamide], the IC50 was 100 to 1000 nM. `C[C@]1(O)c2cc(S(=O)(=O)NC(=O)Nc3c4c(cc5c3CCC5)CCC4)oc2[C@H]2CC[C@@H]1C2` [Compound 40, (4R,5R,8S)-N-((1,2,3,5,6,7-hexahydro-s-indacen-4-yl)carbamoyl)-4-hydroxy-4-methyl-5,6,7,8-tetrahydro-4H-5,8-methanocyclohepta[b]furan-2-sulfonamide] showed an IC50 of under 100 nM. In the case of `C[C@@]1(O)c2cc(S(=O)(=O)NC(=O)Nc3c4c(cc5c3CCC5)CCC4)oc2[C@@H]2CC[C@H]1C2` [Compound 41, (4S,5S,8R)-N-((1,2,3,5,6,7-hexahydro-s-indacen-4-yl)carbamoyl)-4-hydroxy-4-methyl-5,6,7,8-tetrahydro-4H-5,8-methanocyclohepta[b]furan-2-sulfonamide], the IC50 is reported as under 100 nM. With `C[C@]1(O)c2cc(S(=O)(=O)NC(=O)Nc3c4c(cc5c3CCC5)CCC4)oc2[C@@H]2CC[C@H]1C2` [Compound 42, (4R,5S,8R)-N-((1,2,3,5,6,7-hexahydro-s-indacen-4-yl)carbamoyl)-4-hydroxy-4-methyl-5,6,7,8-tetrahydro-4H-5,8-methanocyclohepta[b]furan-2-sulfonamide] the IC50 was under 100 nM. For `C[C@@]1(O)c2cc(S(=O)(=O)NC(=O)Nc3c4c(cc5c3CCC5)CCC4)oc2C2CCC1CC2` [Compound 43, (S)-N-((1,2,3,5,6,7-hexahydro-s-indacen-4-yl)carbamoyl)-4-hydroxy-4-methyl-5,6,7,8-tetrahydro-4H-5,8-ethanocyclohepta[b]furan-2-sulfonamide], the IC50 was under 100 nM. Work on `C[C@]1(O)c2cc(S(=O)(=O)NC(=O)Nc3c4c(cc5c3CCC5)CCC4)oc2C2CCC1CC2` [Compound 44, (R)-N-((1,2,3,5,6,7-hexahydro-s-indacen-4-yl)carbamoyl)-4-hydroxy-4-methyl-5,6,7,8-tetrahydro-4H-5,8-ethanocyclohepta[b]furan-2-sulfonamide] yielded an IC50 of under 100 nM. With `CC1(O)c2cc(S(=O)(=O)NC(=O)Nc3c4c(cc5c3CCC5)CCC4)sc2C2CCC1CC2` (stereo not shown) [Compound 45, N-((1,2,3,5,6,7-hexahydro-s-indacen-4-yl)carbamoyl)-4-hydroxy-4-methyl-5,6,7,8-tetrahydro-4H-5,8-ethanocyclohepta[b]thiophene-2-sulfonamide] the IC50 was under 100 nM. Molecule `O=C(Nc1c2c(cc3c1CCC3)CCC2)NS(=O)(=O)c1cc2c(o1)C1CCC(CC1)C2CO` (stereo not shown) [Compound 46, N-((1,2,3,5,6,7-hexahydro-s-indacen-4-yl)carbamoyl)-4-(hydroxymethyl)-5,6,7,8-tetrahydro-4H-5,8-ethanocyclohepta[b]furan-2-sulfonamide] has an IC50 of under 100 nM. `CC1(O)c2cc(S(=O)(=O)NC(=O)Nc3c4c(cc5c3CCC5)CCC4)sc2C2CCC1C2` (stereo not shown) [Compound 47, N-((1,2,3,5,6,7-hexahydro-s-indacen-4-yl)carbamoyl)-4-hydroxy-4-methyl-5,6,7,8-tetrahydro-4H-5,8-methanocyclohepta[b]thiophene-2-sulfonamide] gave an IC50 of under 100 nM. Molecule `O=C(Nc1c2c(cc3c1CCC3)CCC2)NS(=O)(=O)c1cc2c(s1)C1CCC(C1)C2O` (stereo not shown) [Compound 48, N-((1,2,3,5,6,7-hexahydro-s-indacen-4-yl)carbamoyl)-4-hydroxy-5,6,7,8-tetrahydro-4H-5,8-methanocyclohepta[b]thiophene-2-sulfonamide] has an IC50 of under 100 nM. `O=C(Nc1c2c(cc3c1CCC3)CCC2)NS(=O)(=O)c1cc2c(o1)[C@H]1CC[C@H](C1)C2O` (stereo partly drawn) [Compound 49, (5R,8S)-N-((1,2,3,5,6,7-hexahydro-s-indacen-4-yl)carbamoyl)-4-hydroxy-5,6,7,8-tetrahydro-4H-5,8-methanocyclohepta[b]furan-2-sulfonamide] gave an IC50 of 100 to 1000 nM. `O=C(Nc1c2c(cc3c1CCC3)CCC2)NS(=O)(=O)c1cc2c(o1)[C@@H]1CC[C@@H](C1)C2O` (stereo partly drawn) [Compound 50, (5S,8R)-N-((1,2,3,5,6,7-hexahydro-s-indacen-4-yl)carbamoyl)-4-hydroxy-5,6,7,8-tetrahydro-4H-5,8-methanocyclohepta[b]furan-2-sulfonamide] showed an IC50 of under 100 nM.
